Data taken from ChEMBL document CHEMBL5724914, “Linking interpersonal differences in gut microbiota composition and drug biotransformation activity” (2024).

Experiment: (§1) The drug is tested on Z-013 corresponding to rabbit gut metagenome with ENA study accession number: PRJEB37062 and ENA sample accession number: ERS12561813 for biotransformation under anaerobic condition. The drug concentrations were measured over 9 timepoints collected between 0 and 24 hours of incubation by liquid-chromatography-coupled mass spectrometry (LC–MS)
Conditions: 2 µM
Further: call rule not given here.

Row | Bacterial Biotransformation | SMILES
1 | Compound metabolized | C#C[C@]1(OC(C)=O)CC[C@H]2[C@@H]3CCC4=C[C@@H](OC(C)=O)CC[C@@H]4[C@H]3CC[C@@]21C [ETHYNODIOL DIACETATE]
2 | Compound NOT metabolized | C[C@]12C=CC(=O)C=C1CC[C@@H]1[C@@H]2C(=O)C[C@@]2(C)[C@H]1CC[C@]2(O)C(=O)CO [PREDNISONE]
3 | Compound metabolized | N#Cc1ccc2[nH]cc(CCCCN3CCN(c4ccc5oc(C(N)=O)cc5c4)CC3)c2c1 [VILAZODONE]

Conditions: human gut metagenome, 24 h, 2 µM

Row | Bacterial Biotransformation | SMILES
4 | Compound metabolized | C#C[C@]1(OC(C)=O)CC[C@H]2[C@@H]3CCC4=C[C@@H](OC(C)=O)CC[C@@H]4[C@H]3CC[C@@]21C [ETHYNODIOL DIACETATE]
5 | Compound metabolized | N#Cc1ccc2[nH]cc(CCCCN3CCN(c4ccc5oc(C(N)=O)cc5c4)CC3)c2c1 [VILAZODONE]

Conditions: human gut metagenome, 24 h, 2 µM
Remark: another data set of the same source

Row | Bacterial Biotransformation | SMILES
6 | Compound metabolized | C#C[C@]1(OC(C)=O)CC[C@H]2[C@@H]3CCC4=C[C@@H](OC(C)=O)CC[C@@H]4[C@H]3CC[C@@]21C [ETHYNODIOL DIACETATE]
7 | Compound metabolized | C[C@]12C=CC(=O)C=C1CC[C@@H]1[C@@H]2C(=O)C[C@@]2(C)[C@H]1CC[C@]2(O)C(=O)CO [PREDNISONE]
8 | Compound NOT metabolized | N#Cc1ccc2[nH]cc(CCCCN3CCN(c4ccc5oc(C(N)=O)cc5c4)CC3)c2c1 [VILAZODONE]

Conditions: human gut metagenome, 24 h, 2 µM
Remark: another data set of the same source

Row | Bacterial Biotransformation | SMILES
9 | Compound metabolized | C#C[C@]1(OC(C)=O)CC[C@H]2[C@@H]3CCC4=C[C@@H](OC(C)=O)CC[C@@H]4[C@H]3CC[C@@]21C [ETHYNODIOL DIACETATE]
10 | Compound metabolized | N#Cc1ccc2[nH]cc(CCCCN3CCN(c4ccc5oc(C(N)=O)cc5c4)CC3)c2c1 [VILAZODONE]

Conditions: human gut metagenome, 24 h, 2 µM
Remark: another data set of the same source

Row | Bacterial Biotransformation | SMILES
11 | Compound metabolized | C#C[C@]1(OC(C)=O)CC[C@H]2[C@@H]3CCC4=C[C@@H](OC(C)=O)CC[C@@H]4[C@H]3CC[C@@]21C [ETHYNODIOL DIACETATE]
12 | Compound metabolized | C[C@]12C=CC(=O)C=C1CC[C@@H]1[C@@H]2C(=O)C[C@@]2(C)[C@H]1CC[C@]2(O)C(=O)CO [PREDNISONE]
13 | Compound metabolized | N#Cc1ccc2[nH]cc(CCCCN3CCN(c4ccc5oc(C(N)=O)cc5c4)CC3)c2c1 [VILAZODONE]

Experiment: as §1, with “Z-024” for “Z-013”, “pig” for “rabbit”, “ERS12561823” for “ERS12561813”
Conditions: 2 µM

Row | Bacterial Biotransformation | SMILES
14 | Compound metabolized | C#C[C@]1(OC(C)=O)CC[C@H]2[C@@H]3CCC4=C[C@@H](OC(C)=O)CC[C@@H]4[C@H]3CC[C@@]21C [ETHYNODIOL DIACETATE]
15 | Compound metabolized | C[C@]12C=CC(=O)C=C1CC[C@@H]1[C@@H]2C(=O)C[C@@]2(C)[C@H]1CC[C@]2(O)C(=O)CO [PREDNISONE]
16 | Compound metabolized | N#Cc1ccc2[nH]cc(CCCCN3CCN(c4ccc5oc(C(N)=O)cc5c4)CC3)c2c1 [VILAZODONE]

Experiment: as §1, with “Z-026” for “Z-013”, “to” for “to rabbit gut”, “ERS12561825” for “ERS12561813”
Conditions: 2 µM

Row | Bacterial Biotransformation | SMILES
17 | Compound metabolized | C#C[C@]1(OC(C)=O)CC[C@H]2[C@@H]3CCC4=C[C@@H](OC(C)=O)CC[C@@H]4[C@H]3CC[C@@]21C [ETHYNODIOL DIACETATE]
18 | Compound metabolized | C[C@]12C=CC(=O)C=C1CC[C@@H]1[C@@H]2C(=O)C[C@@]2(C)[C@H]1CC[C@]2(O)C(=O)CO [PREDNISONE]
19 | Compound NOT metabolized | N#Cc1ccc2[nH]cc(CCCCN3CCN(c4ccc5oc(C(N)=O)cc5c4)CC3)c2c1 [VILAZODONE]

Experiment: as §1, with “Z-021” for “Z-013”, “to” for “to rabbit gut”, “ERS12561820” for “ERS12561813”
Conditions: 2 µM

Row | Bacterial Biotransformation | SMILES
20 | Compound metabolized | C#C[C@]1(OC(C)=O)CC[C@H]2[C@@H]3CCC4=C[C@@H](OC(C)=O)CC[C@@H]4[C@H]3CC[C@@]21C [ETHYNODIOL DIACETATE]
21 | Compound metabolized | C[C@]12C=CC(=O)C=C1CC[C@@H]1[C@@H]2C(=O)C[C@@]2(C)[C@H]1CC[C@]2(O)C(=O)CO [PREDNISONE]
22 | Compound metabolized | N#Cc1ccc2[nH]cc(CCCCN3CCN(c4ccc5oc(C(N)=O)cc5c4)CC3)c2c1 [VILAZODONE]

Conditions: human gut metagenome, 24 h, 2 µM
Remark: another data set of the same source

Row | Bacterial Biotransformation | SMILES
23 | Compound metabolized | C#C[C@]1(OC(C)=O)CC[C@H]2[C@@H]3CCC4=C[C@@H](OC(C)=O)CC[C@@H]4[C@H]3CC[C@@]21C [ETHYNODIOL DIACETATE]
24 | Compound metabolized | C[C@]12C=CC(=O)C=C1CC[C@@H]1[C@@H]2C(=O)C[C@@]2(C)[C@H]1CC[C@]2(O)C(=O)CO [PREDNISONE]
25 | Compound metabolized | N#Cc1ccc2[nH]cc(CCCCN3CCN(c4ccc5oc(C(N)=O)cc5c4)CC3)c2c1 [VILAZODONE]

Conditions: human gut metagenome, 24 h, 2 µM
Remark: another data set of the same source

Row | Bacterial Biotransformation | SMILES
26 | Compound metabolized | C#C[C@]1(OC(C)=O)CC[C@H]2[C@@H]3CCC4=C[C@@H](OC(C)=O)CC[C@@H]4[C@H]3CC[C@@]21C [ETHYNODIOL DIACETATE]
27 | Compound metabolized | C[C@]12C=CC(=O)C=C1CC[C@@H]1[C@@H]2C(=O)C[C@@]2(C)[C@H]1CC[C@]2(O)C(=O)CO [PREDNISONE]

Conditions: human gut metagenome, 24 h, 2 µM
Remark: another data set of the same source

Row | Bacterial Biotransformation | SMILES
28 | Compound metabolized | C#C[C@]1(OC(C)=O)CC[C@H]2[C@@H]3CCC4=C[C@@H](OC(C)=O)CC[C@@H]4[C@H]3CC[C@@]21C [ETHYNODIOL DIACETATE]
29 | Compound metabolized | C[C@]12C=CC(=O)C=C1CC[C@@H]1[C@@H]2C(=O)C[C@@]2(C)[C@H]1CC[C@]2(O)C(=O)CO [PREDNISONE]

Experiment: as §1, with “Z-023” for “Z-013”, “to” for “to rabbit gut”, “ERS12561822” for “ERS12561813”
Conditions: 2 µM

Row | Bacterial Biotransformation | SMILES
30 | Compound metabolized | C#C[C@]1(OC(C)=O)CC[C@H]2[C@@H]3CCC4=C[C@@H](OC(C)=O)CC[C@@H]4[C@H]3CC[C@@]21C [ETHYNODIOL DIACETATE]
31 | Compound metabolized | C[C@]12C=CC(=O)C=C1CC[C@@H]1[C@@H]2C(=O)C[C@@]2(C)[C@H]1CC[C@]2(O)C(=O)CO [PREDNISONE]
32 | Compound metabolized | N#Cc1ccc2[nH]cc(CCCCN3CCN(c4ccc5oc(C(N)=O)cc5c4)CC3)c2c1 [VILAZODONE]

Experiment: as §1, with “Z-016” for “Z-013”, “mouse” for “rabbit”, “ERS12561815” for “ERS12561813”
Conditions: 2 µM

Row | Bacterial Biotransformation | SMILES
33 | Compound metabolized | C#C[C@]1(OC(C)=O)CC[C@H]2[C@@H]3CCC4=C[C@@H](OC(C)=O)CC[C@@H]4[C@H]3CC[C@@]21C [ETHYNODIOL DIACETATE]
34 | Compound metabolized | C[C@]12C=CC(=O)C=C1CC[C@@H]1[C@@H]2C(=O)C[C@@]2(C)[C@H]1CC[C@]2(O)C(=O)CO [PREDNISONE]
35 | Compound metabolized | N#Cc1ccc2[nH]cc(CCCCN3CCN(c4ccc5oc(C(N)=O)cc5c4)CC3)c2c1 [VILAZODONE]

Conditions: human gut metagenome, 24 h, 2 µM
Remark: another data set of the same source

Row | Bacterial Biotransformation | SMILES
36 | Compound metabolized | C#C[C@]1(OC(C)=O)CC[C@H]2[C@@H]3CCC4=C[C@@H](OC(C)=O)CC[C@@H]4[C@H]3CC[C@@]21C [ETHYNODIOL DIACETATE]
37 | Compound metabolized | N#Cc1ccc2[nH]cc(CCCCN3CCN(c4ccc5oc(C(N)=O)cc5c4)CC3)c2c1 [VILAZODONE]

Conditions: human gut metagenome, 24 h, 2 µM
Remark: another data set of the same source

Row | Bacterial Biotransformation | SMILES
38 | Compound metabolized | C#C[C@]1(OC(C)=O)CC[C@H]2[C@@H]3CCC4=C[C@@H](OC(C)=O)CC[C@@H]4[C@H]3CC[C@@]21C [ETHYNODIOL DIACETATE]
39 | Compound metabolized | C[C@]12C=CC(=O)C=C1CC[C@@H]1[C@@H]2C(=O)C[C@@]2(C)[C@H]1CC[C@]2(O)C(=O)CO [PREDNISONE]
40 | Compound metabolized | N#Cc1ccc2[nH]cc(CCCCN3CCN(c4ccc5oc(C(N)=O)cc5c4)CC3)c2c1 [VILAZODONE]

Experiment: as §1, with “WLS-073” for “Z-013”, “human” for “rabbit”, “ERS12561749” for “ERS12561813”
Conditions: 2 µM

Row | Bacterial Biotransformation | SMILES
41 | Compound metabolized | C[C@]12C=CC(=O)C=C1CC[C@@H]1[C@@H]2C(=O)C[C@@]2(C)[C@H]1CC[C@]2(O)C(=O)CO [PREDNISONE]
42 | Compound metabolized | N#Cc1ccc2[nH]cc(CCCCN3CCN(c4ccc5oc(C(N)=O)cc5c4)CC3)c2c1 [VILAZODONE]

Experiment: as §1, with “WLS-090” for “Z-013”, “human” for “rabbit”, “ERS12561753” for “ERS12561813”
Conditions: 2 µM

Row | Bacterial Biotransformation | SMILES
43 | Compound metabolized | C#C[C@]1(OC(C)=O)CC[C@H]2[C@@H]3CCC4=C[C@@H](OC(C)=O)CC[C@@H]4[C@H]3CC[C@@]21C [ETHYNODIOL DIACETATE]
44 | Compound metabolized | C[C@]12C=CC(=O)C=C1CC[C@@H]1[C@@H]2C(=O)C[C@@]2(C)[C@H]1CC[C@]2(O)C(=O)CO [PREDNISONE]
45 | Compound metabolized | N#Cc1ccc2[nH]cc(CCCCN3CCN(c4ccc5oc(C(N)=O)cc5c4)CC3)c2c1 [VILAZODONE]

Experiment: as §1, with “Z-003” for “Z-013”, “pig” for “rabbit”, “ERS12561803” for “ERS12561813”
Conditions: 2 µM

Row | Bacterial Biotransformation | SMILES
46 | Compound metabolized | C#C[C@]1(OC(C)=O)CC[C@H]2[C@@H]3CCC4=C[C@@H](OC(C)=O)CC[C@@H]4[C@H]3CC[C@@]21C [ETHYNODIOL DIACETATE]
47 | Compound metabolized | C[C@]12C=CC(=O)C=C1CC[C@@H]1[C@@H]2C(=O)C[C@@]2(C)[C@H]1CC[C@]2(O)C(=O)CO [PREDNISONE]
48 | Compound metabolized | N#Cc1ccc2[nH]cc(CCCCN3CCN(c4ccc5oc(C(N)=O)cc5c4)CC3)c2c1 [VILAZODONE]

Experiment: as §1, with “Z-008” for “Z-013”, “to” for “to rabbit gut”, “ERS12561808” for “ERS12561813”
Conditions: 2 µM

Row | Bacterial Biotransformation | SMILES
49 | Compound metabolized | C#C[C@]1(OC(C)=O)CC[C@H]2[C@@H]3CCC4=C[C@@H](OC(C)=O)CC[C@@H]4[C@H]3CC[C@@]21C [ETHYNODIOL DIACETATE]
50 | Compound NOT metabolized | C[C@]12C=CC(=O)C=C1CC[C@@H]1[C@@H]2C(=O)C[C@@]2(C)[C@H]1CC[C@]2(O)C(=O)CO [PREDNISONE]
51 | Compound metabolized | N#Cc1ccc2[nH]cc(CCCCN3CCN(c4ccc5oc(C(N)=O)cc5c4)CC3)c2c1 [VILAZODONE]

Experiment: as §1, with “Z-009” for “Z-013”, “pig” for “rabbit”, “ERS12561809” for “ERS12561813”
Conditions: 2 µM

Row | Bacterial Biotransformation | SMILES
52 | Compound metabolized | C#C[C@]1(OC(C)=O)CC[C@H]2[C@@H]3CCC4=C[C@@H](OC(C)=O)CC[C@@H]4[C@H]3CC[C@@]21C [ETHYNODIOL DIACETATE]
53 | Compound metabolized | C[C@]12C=CC(=O)C=C1CC[C@@H]1[C@@H]2C(=O)C[C@@]2(C)[C@H]1CC[C@]2(O)C(=O)CO [PREDNISONE]
54 | Compound NOT metabolized | N#Cc1ccc2[nH]cc(CCCCN3CCN(c4ccc5oc(C(N)=O)cc5c4)CC3)c2c1 [VILAZODONE]
